From ChEMBL document CHEMBL1201862, “PubChem BioAssay data set” (2004)
Calls of active or inactive are those of the source.

Key:
[1] = molecular target: E3 ubiquitin-protein ligase Mdm2 (Homo sapiens, UniProt Q00987); assay: MDM2-luc reporter signal enhancers, multi-concentration potency testing, MDM2 ubiquitin-protein ligase inhibitor program, whole-cell format, luminescence detection, 384-well microplate (AID 1394); type: functional;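 also: MDM2 E3 inhibitors raise luminescence so EC50 is for signal enhancement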
[2] = molecular target: Mitogen-activated protein kinase 10 (Homo sapiens, UniProt P53779); assay: Dose response biochemical screening assay for inhibitors of c-Jun N-Terminal Kinase 3 (JNK3). [Related pubchem assays: 746 ]
[3] = molecular target: T1, Alkaline phosphatase, tissue-nonspecific isozyme (Homo sapiens, UniProt P05186); assay: potency against alkaline phosphatase TNAP – biochemical, luminescent, dose response, SAR follow-up (AID 1056)
T1 sequence (P05186 whole entry): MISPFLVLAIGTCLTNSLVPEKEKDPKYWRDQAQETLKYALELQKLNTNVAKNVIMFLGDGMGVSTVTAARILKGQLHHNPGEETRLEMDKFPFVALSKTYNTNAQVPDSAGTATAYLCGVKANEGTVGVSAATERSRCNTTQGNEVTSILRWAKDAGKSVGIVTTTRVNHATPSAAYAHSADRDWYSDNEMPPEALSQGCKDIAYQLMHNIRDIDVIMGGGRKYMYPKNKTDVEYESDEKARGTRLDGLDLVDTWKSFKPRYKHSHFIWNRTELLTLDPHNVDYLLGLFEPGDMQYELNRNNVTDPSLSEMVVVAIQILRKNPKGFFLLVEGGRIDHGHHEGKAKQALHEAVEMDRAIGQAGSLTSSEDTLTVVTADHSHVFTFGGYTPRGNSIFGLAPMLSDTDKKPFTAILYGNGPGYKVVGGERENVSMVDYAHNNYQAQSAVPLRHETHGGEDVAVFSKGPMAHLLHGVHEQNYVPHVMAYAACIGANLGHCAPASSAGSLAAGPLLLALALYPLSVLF

[4] = molecular target: Glyceraldehyde-3-phosphate dehydrogenase (Homo sapiens, UniProt P04406)
[5] = Trypanosoma cruzi growth suppression in host cells – NIH3T3 host cells, beta-gal luminescence, confirmation (AID 2044); type: functional, cell-based;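 also: intracellular parasites grown in NIH/3T3 mouse fibroblasts as host cells; luminescent beta-galactosidase reporter signal from transgenic T. cruzi replicating inside host cells; inhibitors lower the luminescence signal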
[6] = viability loss in THP-1 monocytes – THP-1 cells, cytotoxicity control for Vif-APOBEC3G degradation inhibitor project, dose response (AID 1117359); type: functional; settings: THP-1
[7] = NIH3T3 cell viability loss – ATP luminescence, mouse fibroblasts, counter-screen, dose response (AID 2010); type: functional, cell-based;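 also: cells exposed to compound for about 90 hours before reading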
BJ [8] = assay: BJ-TERT-LT-ST fibroblast viability loss – cell-based, RAS-independent, luminescence, dose response (AID 1935); type: functional; settings: Homo sapiens;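 also: BJ fibroblasts immortalized with TERT plus LT and ST oncogenes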
BJ [9] = assay: BJ-TERT fibroblast viability loss – cell-based, RAS-independent, luminescence, dose response (AID 1933); type: functional; settings: Homo sapiens
[10] = DRD fibroblast viability loss – cell-based, non-viral oncogenic, luminescence, dose response (AID 1934); type: functional; settings: Homo sapiens
BJ [11] = assay: cells; type: functional, cell-based; settings: Homo sapiens
Transthyretin = Transthyretin (Homo sapiens, UniProt P02766); assay: Luminescence-based cell-based high throughput dose response assay to identify activators of Transthyretin (TTR) transcription.; type: functional
BJ [12] = assay: growth inhibition of engineered Ras-driven BJ cells – cell-based, alamar blue fluorescence, cherrypicked samples, dose response (AID 2631); type: functional; settings: Homo sapiens;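 also: confirmatory dose-response assay in RAS-dependent BJ fibroblasts engineered with TERT, LT and ST, with cytotoxicity read by fluorescence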
[13] = molecular target: T2, Short transient receptor potential channel 4 (Mus musculus, UniProt Q9QUQ5); assay: block of DAMGO-driven TRPC4 calcium entry – cell-based, HEK293 TRPC4/mu-opioid, Fluo-4 calcium, dose response (AID 434942); type: functional;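 also: potency of inhibitors blocking the TRPC4 calcium response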
T2 sequence (Q9QUQ5 whole entry): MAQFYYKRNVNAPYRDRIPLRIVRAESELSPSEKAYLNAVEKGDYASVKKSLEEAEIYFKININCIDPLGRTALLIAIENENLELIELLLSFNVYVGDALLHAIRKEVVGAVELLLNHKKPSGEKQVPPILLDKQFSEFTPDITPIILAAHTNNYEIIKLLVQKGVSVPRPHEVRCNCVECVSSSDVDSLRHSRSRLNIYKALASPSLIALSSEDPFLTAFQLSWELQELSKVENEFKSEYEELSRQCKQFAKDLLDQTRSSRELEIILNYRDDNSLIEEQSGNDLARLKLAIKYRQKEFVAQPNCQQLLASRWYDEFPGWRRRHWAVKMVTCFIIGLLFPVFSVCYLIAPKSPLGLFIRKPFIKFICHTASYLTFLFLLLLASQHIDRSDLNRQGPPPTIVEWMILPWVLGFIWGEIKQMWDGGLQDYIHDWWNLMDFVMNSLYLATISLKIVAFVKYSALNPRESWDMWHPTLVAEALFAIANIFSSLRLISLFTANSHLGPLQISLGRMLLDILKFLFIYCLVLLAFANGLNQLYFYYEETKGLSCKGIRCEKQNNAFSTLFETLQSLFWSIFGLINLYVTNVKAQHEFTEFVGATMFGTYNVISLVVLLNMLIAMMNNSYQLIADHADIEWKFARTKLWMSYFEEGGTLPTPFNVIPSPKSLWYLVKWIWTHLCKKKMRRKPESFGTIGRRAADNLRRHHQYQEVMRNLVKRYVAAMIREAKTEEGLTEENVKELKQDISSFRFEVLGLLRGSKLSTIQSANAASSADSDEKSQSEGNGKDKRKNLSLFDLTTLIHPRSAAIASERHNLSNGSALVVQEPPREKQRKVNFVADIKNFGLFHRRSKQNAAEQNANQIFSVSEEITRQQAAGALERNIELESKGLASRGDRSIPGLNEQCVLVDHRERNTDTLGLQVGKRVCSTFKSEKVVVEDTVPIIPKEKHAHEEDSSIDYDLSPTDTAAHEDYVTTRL

Cytochrome P450 2C9 = Cytochrome P450 2C9 (Homo sapiens, UniProt P11712)
Ephrin type-A receptor 4 = Ephrin type-A receptor 4 (Mus musculus, UniProt Q03137); assay: EphA4 ligand-binding antagonists – biochemical, colorimetric, mouse EphA4, primary screen (AID 689); type: functional
Sequence of Ephrin type-A receptor 4 (Q03137 whole entry): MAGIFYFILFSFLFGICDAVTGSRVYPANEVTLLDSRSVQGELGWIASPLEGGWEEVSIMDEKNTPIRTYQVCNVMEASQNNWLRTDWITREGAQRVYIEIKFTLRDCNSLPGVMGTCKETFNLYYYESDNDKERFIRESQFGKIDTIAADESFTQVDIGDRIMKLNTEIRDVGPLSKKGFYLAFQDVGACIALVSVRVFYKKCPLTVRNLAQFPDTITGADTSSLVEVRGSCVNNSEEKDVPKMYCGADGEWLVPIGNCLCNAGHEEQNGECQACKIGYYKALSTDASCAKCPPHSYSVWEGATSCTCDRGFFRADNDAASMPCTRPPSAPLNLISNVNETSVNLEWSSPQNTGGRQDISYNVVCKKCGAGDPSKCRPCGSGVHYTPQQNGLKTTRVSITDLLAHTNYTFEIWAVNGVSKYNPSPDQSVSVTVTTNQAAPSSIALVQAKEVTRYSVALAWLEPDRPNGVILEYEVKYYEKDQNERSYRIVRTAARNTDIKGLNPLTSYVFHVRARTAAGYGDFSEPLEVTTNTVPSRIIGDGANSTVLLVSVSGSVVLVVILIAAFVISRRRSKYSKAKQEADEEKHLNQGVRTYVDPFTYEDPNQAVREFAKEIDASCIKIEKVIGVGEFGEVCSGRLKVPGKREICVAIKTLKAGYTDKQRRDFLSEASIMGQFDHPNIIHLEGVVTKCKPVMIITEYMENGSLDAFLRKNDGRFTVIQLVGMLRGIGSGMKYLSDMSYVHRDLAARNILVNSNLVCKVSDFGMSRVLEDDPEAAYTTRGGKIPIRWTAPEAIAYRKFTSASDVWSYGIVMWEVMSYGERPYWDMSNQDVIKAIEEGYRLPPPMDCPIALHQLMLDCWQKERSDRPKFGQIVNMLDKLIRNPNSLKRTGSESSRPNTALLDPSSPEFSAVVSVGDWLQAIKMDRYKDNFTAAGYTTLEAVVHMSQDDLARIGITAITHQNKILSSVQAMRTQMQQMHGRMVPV

Sequence of Cytochrome P450 2C9 (P11712 whole entry): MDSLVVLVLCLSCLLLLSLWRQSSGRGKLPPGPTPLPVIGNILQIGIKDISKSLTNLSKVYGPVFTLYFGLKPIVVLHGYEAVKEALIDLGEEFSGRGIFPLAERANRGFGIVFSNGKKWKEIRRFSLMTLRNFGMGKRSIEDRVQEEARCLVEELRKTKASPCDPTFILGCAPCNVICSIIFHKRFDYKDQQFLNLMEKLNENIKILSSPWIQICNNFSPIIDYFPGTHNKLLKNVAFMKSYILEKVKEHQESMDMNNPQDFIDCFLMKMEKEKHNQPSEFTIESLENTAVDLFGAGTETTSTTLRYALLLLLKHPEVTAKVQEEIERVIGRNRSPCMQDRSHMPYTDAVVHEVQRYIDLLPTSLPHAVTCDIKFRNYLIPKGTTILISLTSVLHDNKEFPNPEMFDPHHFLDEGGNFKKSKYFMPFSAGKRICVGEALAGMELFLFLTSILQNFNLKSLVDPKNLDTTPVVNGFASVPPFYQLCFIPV
Sequence of Mitogen-activated protein kinase 10 (P53779 whole entry): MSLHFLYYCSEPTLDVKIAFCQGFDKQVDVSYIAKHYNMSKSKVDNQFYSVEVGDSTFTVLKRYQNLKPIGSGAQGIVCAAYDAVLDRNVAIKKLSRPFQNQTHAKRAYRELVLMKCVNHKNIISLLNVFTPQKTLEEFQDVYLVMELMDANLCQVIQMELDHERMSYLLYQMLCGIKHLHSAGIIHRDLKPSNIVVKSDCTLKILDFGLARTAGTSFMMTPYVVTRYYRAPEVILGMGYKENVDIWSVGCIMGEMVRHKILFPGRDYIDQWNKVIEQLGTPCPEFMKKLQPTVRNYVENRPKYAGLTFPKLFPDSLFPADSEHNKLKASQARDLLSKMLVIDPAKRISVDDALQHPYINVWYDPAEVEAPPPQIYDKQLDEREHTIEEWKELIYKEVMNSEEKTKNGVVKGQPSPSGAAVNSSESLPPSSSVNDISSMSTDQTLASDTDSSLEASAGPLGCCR
Sequence of E3 ubiquitin-protein ligase Mdm2 (Q00987 whole entry): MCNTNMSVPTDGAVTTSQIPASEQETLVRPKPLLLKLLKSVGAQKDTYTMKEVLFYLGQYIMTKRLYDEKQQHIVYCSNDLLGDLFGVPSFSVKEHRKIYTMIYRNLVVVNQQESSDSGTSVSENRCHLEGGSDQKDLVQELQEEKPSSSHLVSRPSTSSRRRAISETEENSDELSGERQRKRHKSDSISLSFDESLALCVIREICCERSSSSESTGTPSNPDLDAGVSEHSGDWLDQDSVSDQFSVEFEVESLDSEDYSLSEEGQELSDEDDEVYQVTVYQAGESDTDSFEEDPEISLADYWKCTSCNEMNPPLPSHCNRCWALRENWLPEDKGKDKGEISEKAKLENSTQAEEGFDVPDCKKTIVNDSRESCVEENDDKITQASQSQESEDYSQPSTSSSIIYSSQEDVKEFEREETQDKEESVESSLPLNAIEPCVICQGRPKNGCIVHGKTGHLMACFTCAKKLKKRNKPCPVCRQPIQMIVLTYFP
Sequence of Glyceraldehyde-3-phosphate dehydrogenase (P04406 whole entry): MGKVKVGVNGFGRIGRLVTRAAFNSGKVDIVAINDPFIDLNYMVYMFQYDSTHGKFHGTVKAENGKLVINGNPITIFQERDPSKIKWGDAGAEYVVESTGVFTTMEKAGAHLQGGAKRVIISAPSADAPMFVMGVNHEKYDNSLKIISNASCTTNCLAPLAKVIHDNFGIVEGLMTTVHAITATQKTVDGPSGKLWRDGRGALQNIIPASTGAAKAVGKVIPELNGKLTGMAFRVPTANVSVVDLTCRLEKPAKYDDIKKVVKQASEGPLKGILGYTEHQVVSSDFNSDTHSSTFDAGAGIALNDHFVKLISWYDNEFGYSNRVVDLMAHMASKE

O=C(Nc1ccc(Cl)cc1)c1ccc(-n2cccn2)c([N+](=O)[O-])c1
EC50 [1]: 8.84 µM (not active)

c1ccc(-c2[nH]nc3ccccc23)cc1
IC50 [2]: 2.34 µM (active) | IC50 [3]: 3.53 µM (active) | IC50 [4]: > 10 µM (inconclusive)

O=[N+]([O-])c1ccc(/C=N/Nc2nc(N3CCCC3)nc(N3CCCC3)n2)o1
EC50 [5]: 0.563 µM (active) | CC50 [6]: > 40 µM (active) | EC50 [7]: > 60 µM (not active)

CN(C)CC(CCC(CN(C)C)C(O)(c1ccccc1)c1ccccc1)C(O)(c1ccccc1)c1ccccc1 (stereo unspecified)
EC50 (BJ [8]): 5.82 µM (inconclusive) | EC50 (BJ [9]): 4.97 µM (inconclusive) | EC50 [10]: 5.81 µM (active) | EC50 (BJ [11]): 11.6 µM (active) | EC50 (Transthyretin): > 167 µM (inactive) | EC50 (BJ [12]): 2.13 µM (active) | EC50 [13]: 1.68 µM (active)

COc1ccc2sc3ccccc3c(=O)c2c1OC
AC50 (Cytochrome P450 2C9): 28.2 µM (inconclusive) | IC50 (Ephrin type-A receptor 4): > 100 µM (not active)
